In patent US20100204247A1, “N-SUBSTITUTED OXINDOLINE DERIVATIVES AS CALCIUM CHANNEL BLOCKERS” (priority 2007, published 2010):

Target: T1, N-type calcium channel (Human Cav2.2 channels) (Homo sapiens, UniProt Q00975)
T1 construct: expressed in transfected cells
Test: N-type calcium channel (Cav2.2) antagonist assays: fluorescent potassium depolarization assay, IonWorks and PatchXpress/manual patch clamp electrophysiology
Type: cell-based
Settings: in the aforementioned assays (Assay Examples 1-3); the specific assay is not stated; read-out: IC50, antagonizing the N-type calcium channel
Excerpt: Fluorescent Assay for Cav2.2 Channels using Potassium Depolarization to Initiate Channel Opening
Human Cav2.2 channels were stably expressed in KEK293 cells along with alpha2-delta and beta subunits of voltage-gated calcium channels. An inwardly rectifying potassium channel (Kir2.3) was also expressed in these cells to allow more precise control of the cell membrane potential by extracellular potassium concentration. At low bath potassium concentration, the membrane potential is relatively negative, and is depolarized as the bath potassium concentration is raised. In this way, the bath potassium concentration can be used to regulate the voltage-dependent conformations of the channels. […]
Calcium influx through Cav2.2 channels is determined using a calcium-sensitive fluorescent dye in combination with a fluorescent plate reader. Fluorescent changes were measured with either a VIPR (Aurora Instruments) or FLIPR (Molecular Devices) plate reader.
• 1. […] Read cell plate on VIPR instrument, Excitation=480 nm, Emission=535 nm • 9. With VIPR continuously reading, add 0.1 mL (96-well plate) or 0.03 mL (384-well plate) of Depolarization Buffer, which is 2× the final assay concentration, to the cell plate. […]
Block of N-type calcium channels is evaluated utilizing the IonWorks HT 384 well automated patch clamp electrophysiology device. […]

T1 sequence (Q00975 whole entry): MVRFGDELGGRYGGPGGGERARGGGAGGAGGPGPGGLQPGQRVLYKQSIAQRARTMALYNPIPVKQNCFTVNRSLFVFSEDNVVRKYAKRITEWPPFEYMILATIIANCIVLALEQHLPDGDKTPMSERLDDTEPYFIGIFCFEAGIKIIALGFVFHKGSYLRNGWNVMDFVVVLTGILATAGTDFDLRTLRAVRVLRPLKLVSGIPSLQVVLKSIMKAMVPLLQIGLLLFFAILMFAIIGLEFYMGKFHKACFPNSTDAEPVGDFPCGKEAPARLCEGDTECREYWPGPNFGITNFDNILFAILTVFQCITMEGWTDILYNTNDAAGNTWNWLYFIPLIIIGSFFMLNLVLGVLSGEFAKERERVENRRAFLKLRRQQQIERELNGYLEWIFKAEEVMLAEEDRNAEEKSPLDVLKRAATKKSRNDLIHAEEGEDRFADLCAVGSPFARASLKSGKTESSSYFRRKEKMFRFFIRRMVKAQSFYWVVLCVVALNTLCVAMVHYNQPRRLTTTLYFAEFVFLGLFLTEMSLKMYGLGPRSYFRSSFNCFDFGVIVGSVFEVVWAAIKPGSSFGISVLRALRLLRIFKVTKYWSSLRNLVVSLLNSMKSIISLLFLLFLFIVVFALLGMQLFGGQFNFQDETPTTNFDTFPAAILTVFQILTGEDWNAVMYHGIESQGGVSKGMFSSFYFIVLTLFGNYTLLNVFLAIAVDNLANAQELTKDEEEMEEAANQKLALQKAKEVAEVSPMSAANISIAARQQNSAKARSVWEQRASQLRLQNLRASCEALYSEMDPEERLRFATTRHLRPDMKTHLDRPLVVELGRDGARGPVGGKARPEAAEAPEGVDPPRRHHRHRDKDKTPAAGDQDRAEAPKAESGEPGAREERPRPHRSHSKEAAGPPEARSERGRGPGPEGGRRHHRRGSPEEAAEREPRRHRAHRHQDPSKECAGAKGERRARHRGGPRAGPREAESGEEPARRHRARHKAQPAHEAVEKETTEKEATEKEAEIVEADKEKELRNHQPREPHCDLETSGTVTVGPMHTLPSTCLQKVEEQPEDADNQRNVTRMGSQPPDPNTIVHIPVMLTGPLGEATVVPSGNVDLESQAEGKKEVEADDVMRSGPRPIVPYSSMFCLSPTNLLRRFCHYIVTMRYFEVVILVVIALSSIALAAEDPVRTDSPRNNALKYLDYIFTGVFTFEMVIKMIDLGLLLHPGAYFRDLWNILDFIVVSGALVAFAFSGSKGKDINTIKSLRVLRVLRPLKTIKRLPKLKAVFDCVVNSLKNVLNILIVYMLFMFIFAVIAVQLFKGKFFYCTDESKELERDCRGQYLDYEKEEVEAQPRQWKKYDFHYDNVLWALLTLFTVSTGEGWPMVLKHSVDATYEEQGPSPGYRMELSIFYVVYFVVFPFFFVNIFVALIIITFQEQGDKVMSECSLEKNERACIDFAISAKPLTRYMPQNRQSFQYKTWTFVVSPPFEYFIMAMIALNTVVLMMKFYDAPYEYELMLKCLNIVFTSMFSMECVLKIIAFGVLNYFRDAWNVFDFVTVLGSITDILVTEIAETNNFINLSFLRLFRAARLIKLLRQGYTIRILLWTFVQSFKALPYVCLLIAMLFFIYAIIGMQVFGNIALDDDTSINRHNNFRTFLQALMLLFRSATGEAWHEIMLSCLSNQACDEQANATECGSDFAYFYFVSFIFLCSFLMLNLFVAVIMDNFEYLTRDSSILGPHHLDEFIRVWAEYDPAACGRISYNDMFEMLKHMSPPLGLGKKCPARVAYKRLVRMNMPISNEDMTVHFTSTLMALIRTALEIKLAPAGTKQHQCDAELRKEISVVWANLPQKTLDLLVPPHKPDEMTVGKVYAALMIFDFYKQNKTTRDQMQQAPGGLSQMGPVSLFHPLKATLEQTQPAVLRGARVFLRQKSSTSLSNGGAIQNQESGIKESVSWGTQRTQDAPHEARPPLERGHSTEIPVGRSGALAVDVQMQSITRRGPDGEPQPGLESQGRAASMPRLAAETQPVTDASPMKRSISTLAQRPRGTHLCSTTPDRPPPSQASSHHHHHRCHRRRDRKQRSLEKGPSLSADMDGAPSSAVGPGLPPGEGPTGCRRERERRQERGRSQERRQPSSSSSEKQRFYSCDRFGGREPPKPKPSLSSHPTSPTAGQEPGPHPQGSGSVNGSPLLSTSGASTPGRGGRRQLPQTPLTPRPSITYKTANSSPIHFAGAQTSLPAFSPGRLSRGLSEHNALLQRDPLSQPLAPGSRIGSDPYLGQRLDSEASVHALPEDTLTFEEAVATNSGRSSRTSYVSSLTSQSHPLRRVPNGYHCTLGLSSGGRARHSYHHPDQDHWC

Row | Structure (SMILES) | IC50 [µM]
1 | CC1(Cc2cc(F)cc(F)c2)C(=O)Nc2ccc(-c3ccc(F)cc3)cc21 (centres unmarked) [Example 12, 3-(3,5-difluorobenzyl)-5-(4-fluorophenyl)-3-methyl-1,3-dihydro-2H-indol-2-one] | 0.59
2 | CC1(Cc2cncnc2)C(=O)Nc2ccc(-c3cccc(OCC(F)(F)F)c3)cc21 (centres unmarked) [Example 15, 3-methyl-3-(pyrimidin-5-ylmethyl)-5-[3-(2,2,2-trifluoroethoxy)phenyl]-1,3-dihydro-2H-indol-2-one] | 0.14
